# Results: patent US9969761B2, “Stabilisation of radiopharmaceutical precursors” (GE HEALTHCARE LIMITED, priority 2004, dated 2018)
# Several values for one entry are separate records, joined by “and”; a condition that tells them apart may be missing. Identical values can stand only once.
# What was measured:
# [1] = Purity by HPLC-UV after storage; assay type: physicochemical; details: dry powder; 2 weeks storage at 50° C.
# Description: (§1) Filled and capped units are kept in storage at 25° C. and 50° C. in thermally controlled cabinets for set periods of time at which “pull points” a vial was removed from storage and subjected to the testing outlined below.
# (§2) Non-radioactive methods (cold) performed: • Appearance/organoleptic test, all pull points • Purity by HPLC-UV, all pull points • ^19F-NMR, all pull points • Water content analysis, at time zero.
# HPLC Method: octadecylsilyl silica gel (5 μm) column (Hichrom Nucleosil 100-5C18), temperature 25° C.; injection volume 20 μl; mobile phase of water: acetonitrile gradient, 1 ml/min. Detection by spectrophotometer at 220 nm.
# HPLC-UV traces for the solid mannose triflate control experiment and the acetonitrile solution of mannose triflate are shown in FIGS. 1 and 2 respectively. Mannose triflate elutes at 32.5 minutes.
# [2] = dry powder at 5° C.; cited from earlier work
# [3] = Radiolabelling with 18F- in a glassy carbon reactor after storage (pFDG RCP), Examples 1 and 2; assay type: physicochemical; details: storage time 0 weeks, MT 20 mg in 1.6 ml acetonitrile
# Description: as §1
# Radioactive methods (hot) performed: Radiolabelling with ^18F^− in a glassy carbon reactor (all pull points). Each dry sample of mannose triflate (20 mg) is dissolved in dry acetonitrile (1.6 ml). For the mannose triflate stored in acetonitrile, an aliquot (3.3 ml) was removed and diluted to 4.0 ml with acetonitrile and 1.6 ml of this solution was used in the radiolabelling test. For the samples taken after 2 weeks storage at 50° C., a 1.6 ml sample of the mannose triflate solution was used directly without further dilution. In all cases, the radiolabelling was performed after drying an ^18F solution of Kryptofix 2.2.2 (19.4 mg), potassium carbonate (41.0 mg), acetonitrile (0.32 ml) and water (0.04 ml) for 4 minutes at 80° C. before adding the test solution of mannose triflate in acetonitrile. The labelling reaction was carried out at 80° C. for 4 minutes in a glassy carbon reactor. […]
# Using similar method to Example 1, the stability of mannose triflate in acetonitrile with water at level of approximately 725, 1450, and 2500 ppm was evaluated. […]
# [4] = Comparative example: radiolabelling of stored dry powder mannose triflate, RCP by ITLC; assay type: physicochemical; details: for % RCP: dry powder
# Description: Dry powder mannose triflate was stored in vials at different temperatures and for different time periods.
# A solution of potassium carbonate (41 mg of potassium carbonate in 40 μl water) was added to a glassy carbon reactor and then a solution of kryptofix 222 (19.4 mg in 320 μl) was added separately. Then a solution of 18-fluoride in water (0.05 ml) was added and the solution dried by heating to 80° C. for 4 mins with a flow of dry nitrogen (at 0.3 liters/min). A solution of 1,3,4,6-tetra-O-acetyl-2-O-trifluoromethanesulfonyl-β-D-mannopyranose (20 mg in 1.6 ml dry acetonitrile) was then added and the reaction heated for a further 4 minutes at 80° C. The reaction was then cooled to 50° C. and a sample removed for analysis by ITLC (Instant thin layer chromatography) on TLC aluminium sheets silica gel 60 F254 eluting with 95% acetonitrile, 5% water. The radiochemical purity was calculated from the ratio of 1,3,4,6-tetra-O-acetyl-2-fluoro-β-D-mannopyranose to the total of the sugar and free fluoride (the sole two components from the reaction).
# IR of stored dry powder = assay type: physicochemical; details: 2 weeks storage at 50° C.
# [5] = Appearance/organoleptic test after storage; assay type: physicochemical; details: dry powder; 2 weeks storage at 50° C.
# Description: as §1, §2
structure (smiles),measurement,setting,value
"CC(=O)OC[C@H]1O[C@@H](OC(C)=O)[C@@H](OS(=O)(=O)C(F)(F)F)[C@@H](OC(C)=O)[C@@H]1OC(C)=O [mannose triflate, 1,3,4,6-tetra-O-acetyl-2-O-trifluoromethanesulfonyl-β-D-mannopyranose]",HPLC-UV detection of mannose triflate,[1],no mannose triflate was detected
same,shelf life,[2],6 months
same,pFDG RCP %,[3]; listed as Control (N2),82% and 93%
same,pFDG RCP %,[3]; listed as Control (air),87% and 86%
same,% RCP,"[4]; 0 days under air, listed as Dry powder mannose triflate",87% and 86%
same,% RCP,"[4]; 1 day @ room temperature under dry N2, listed as Dry powder mannose triflate",82% and 93%
same,% RCP,[4]; 5 days @ 50° C. under air,5%
same,% RCP,[4]; 127 days @ 25° C. under air,1%
same,stability of dry powder (conclusion from RCP data),"[4]; room temperature, much worse at 50° C.",significant instability
same,IR identity,IR of stored dry powder,no longer mannose triflate
same,Appearance/organoleptic,[5],black and smelled strongly of acetic acid
